Source: US20060216346A1, “Dosage form containing (s)-pantoprazole as active ingredient” (priority 2003, published 2006)
Where two headings read alike, the source gives them in different places.

How the values were obtained:
[1] = in comparison to pantoprazole itself or to pantoprazole sodium sesquihydrate; WO00/10995; cited from earlier work
[2] = Stability of the salt at 70° C. for one week; type: physicochemical; conditions: for discolouration and decomposition: identical conditions
Description: Pantoprazole is the INN (International Nonproprietary Name) for the compound 5-difluoromethoxy-2-[(3,4-dimethoxy-2-pyridinyl)methylsulfinyl]-1H-benzimidazole. The magnesium salt of pantoprazole is the chemical compound magnesium bis[5-[difluoromethoxy]-2-[[3,4-dimethoxy-2-pyridinyl]methyl]sulfinyl]-1H-benzimidazolide]. The magnesium salt of (S)-pantoprazole [hereinafter also referred to as (−)-pantoprazole] and its hydrates in connection with the invention refers to the compound magnesium (−)-bis{[5-(difluoromethoxy)]-2-[(3,4-dimethoxy-2-pyridinyl)methylsulphinyl]-1H-benzimidazolide} including hydrates thereof. Here, particular emphasis is given to hydrates, which, after drying under reduced pressure at 50° C., have a water content of from 4.0 to 6.7% (by weight), in particular from 4.0 to 5.5%. Particular preference is given to the hydrate form which has a water content of from 4.0 to 5.0%, in particular from 4.2 to 4.4%, which corresponds to a dihydrate. The magnesium salt and its hydrates have highly surprising stability properties, making it a particularly suitable candidate for use in solid or oral dosage forms.
(§1) This absorption of water is reversible, so that it is difficult to adjust an exact water content.

[3] = Hygroscopicity / absorption of water; type: physicochemical
Method: as §1
Drying is carried out in a vacuum drying cabinet at <50 mbar and 40-45° C. [It is also possible to dispense with drying and to use the moist product (having an MIBK content of 10-20%) directly for step B]. The white-beige crystalline product obtained after drying is hygroscopic. The water content is from 2 to 12%. The absorption and release of water are reversible. Yield: 34 g=90% of theory (based on anhydrous product). Specific rotation: aD^20+=−95 (c=0.5, measured in methanol, sodium salt having a water content of 12%). m.p.: 145-165° C. (decomposition, sodium salt having a water content of 2%); 102-109° C. (decomposition, sodium salt having a water content of 12%).

Wettability = type: physicochemical; conditions: compared to the racemic pantoprazole magnesium dihydrate
Description: as §1

Dissolution rate = type: physicochemical; conditions: compared to the racemic pantoprazole magnesium dihydrate
Description: as §1

Solubility at pH 7.4 = type: physicochemical; conditions: at pH 7.4, compared to the racemic pantoprazole magnesium dihydrate
Description: as §1

Row | Compound | stability properties [1] | discolouration and decomposition ([2]; at 70° C., one week) | hygroscopicity [3] | hygroscopicity ([3]; listed as (−)-Pantoprazole-Na) | stability ([2]; at 70° C., one week) | stability properties ([2]; compared to the sodium salt of (−)-pantoprazole) | wettability (Wettability) | dissolution rate (Dissolution rate) | solubility (Solubility at pH 7.4)
1 | COc1ccnc(C[S+]([O-])c2nc3cc(OC(F)F)ccc3[n-]2)c1OC.COc1ccnc(C[S+]([O-])c2nc3cc(OC(F)F)ccc3[n-]2)c1OC.[Mg+2] (centres unmarked) [magnesium bis[5-[difluoromethoxy]-2-[[3,4-dimethoxy-2-pyridinyl]methyl]sulfinyl]-1H-benzimidazolide]] | improved stability properties | – | – | – | – | – | – | – | –
2 | COc1ccnc(C[S+]([O-])c2nc3cc(OC(F)F)ccc3[n-]2)c1OC.[Na+] (single isomer, unassigned; (-)) [(−)-pantoprazole sodium] | – | changes to brown, with formation of considerable amounts of decomposition products | absorbs water depending on drying conditions and atmospheric humidity | hygroscopic | – | – | – | – | –
3 | COc1ccnc(C[S+]([O-])c2nc3cc(OC(F)F)ccc3[n-]2)c1OC.COc1ccnc(C[S+]([O-])c2nc3cc(OC(F)F)ccc3[n-]2)c1OC.O.O.[Mg+2] (single isomer, unassigned; (-)) [(−)-pantoprazole magnesium dihydrate, Magnesium (−)-bis{[5-(difluoromethoxy)]-2-[(3,4-dimethoxy-2-pyridinyl)methylsulphinyl]-1H-benzimidazolide}dihydrate] | – | virtually no discolouration or decomposition | non-hygroscopic | – | completely stable | considerably improved stability properties | better | considerably higher | better
